Laboratory results: PubChem BioAssay AID1845198 (Molecular Pharmacology Branch, DTP, NCI, 2023)

Tested on: 425362-245-T-J1 tumor spheroids, viability % test/control
Assay: Anticancer human tumor 425362-245-T-J1 patient-derived melanoma cell line growth inhibition
Details: spheroids with HUVEC and MSC; for IC50: curve of first compound; for viability, T/C: stronger effect = lower value
Excerpt: Multicellular complex tumor spheroid response to DNA repair inhibitors in combination with DNA-damaging drugs
This study explores the anticancer activities of DNA-damaging drugs and inhibitors of DNA damage repair, both as single agents and in combinations. Complex tumor spheroids comprised of malignant cells, endothelial cells and mesenchymal stem cells served as an in vitro model for human solid tumors. This model system incorporates physiologically relevant features and patient-derived or established malignant cell lines with clinically relevant genetic alterations from many tumor types. Twenty-six patient-derived or established malignant cell lines were evaluated representing sarcoma, melanoma, small cell lung cancer (SCLC), non-small cell lung cancer (NSCLC), as well as bladder, ovarian and pancreatic cancers. The concentration ranges selected for each drug and investigational agent were based upon clinically achievable concentrations if the clinical Cmax of the agent was known.
Compounds. The drugs and compounds olaparib (NSC753686), talazoparib (NSC767125), berzosertib (NSC777718), elimusertib (NSC800525), nedisertib (NSC802822), VX-984 (NSC792969), AZD-1390 (NSC803789), temozolomide (NSC362856), topotecan (NSC609699), trabectedin (NSC813783), staurosporine (NSC755774), and gemcitabine (NSC613327) were obtained from the National Cancer Institute (NCI) Developmental Therapeutics Program Chemical Repository. The FDA-approved anticancer drug set is available from the Developmental Therapeutics Program at https://dtp.cancer.gov/organization/dscb/obtaining/available_plates.htm. […] The stock solutions were prepared in dimethyl sulfoxide (DMSO, Sigma-Aldrich, St. Louis, MO, cat. D2650) at 400-fold the tested concentration and stored at -70 degrees C. Prior to their use, the stock solutions were diluted in fresh medium and the final DMSO concentration in the assay was 0.25% (v/v). All drugs and investigational agents were tested over a range starting from a high concentration at or near the clinical Cmax and decreasing in half-log increments. If the clinical Cmax for an agent had not been determined, the highest concentration tested was 10 microM.
Cell Lines. The patient-derived cancer cell (PDC) lines: 156681-154-R-J1-PDC, 283228-195-R-J1-PDC, 287954-098-R-J1-PDC, 292921-168-R-J2-PDC, 349418-098-R-PDC, 425362-245-T-J1-PDC, 556581-035-R-J1-PDC, and BL0293-F563-PDC were received from the NCI Patient-Derived Models Repository (PDMR, https://pdmr.cancer.gov). The established cell lines HS-SY-2 (RRID:CVCL_8719), MPNST, and SYO-1 (RRID:CVCL_7146) were obtained from the Sloan Kettering Institute. The alveolar soft parts sarcoma cell line ASPS-1 (RRID:CVCL_S738) was established at the NCI and grown from internal seed stocks. The following established cell lines were purchased from the American Type Culture Collection (ATCC, Manassas, VA): G-401 (ATCC, cat. CRL-1441, RRID:CVCL_0270), SW982 (ATCC, cat. HTB-93, RRID:CVCL_1734), VA-ES-BJ (ATCC, cat. CRL-2138, RRID:CVCL_1785), NCI-H719 (ATCC, cat. CRL-5837, RRID:CVCL_1582), NCI-H196 (ATCC, cat. CRL-5823, RRID:CVCL_1509), NCI-H841 (ATCC, cat. CRL-5845, RRID:CVCL_1595), NCI-H1618 (ATCC, cat. CRL-5879, RRID:CVCL_1480), NCI-H1876 (ATCC, cat. CRL-5902, RRID:CVCL_1503), DMS 114 (ATCC, cat. CRL-2066; RRID:CVCL_1174), NCI-H211 (ATCC, cat. CRL-5824; RRID:CVCL_1529), and SW 1271 (ATCC, cat. CRL-2177, RRID:CVCL_1716). The small cell lung cancer cell line COR-L88 was purchased from Sigma-Aldrich (cat. 92031917-1VL, RRID:CVCL_1141). The non-small cell lung cancer cell lines NCI-H226 (RRID:CVCL_1544) and NCI-H322M (RRID:CVCL_1557) were established at the NCI and grown from internal seed stocks. Pooled donor human umbilical vein endothelial cells (HUVEC, Lonza, cat. CC-2519) and human mesenchymal stem cells (hMSC, Lonza, cat. PT-2501) were purchased from Lonza (Walkersville, MD).
Cell Culture. All cells were maintained in an incubator at 37 degrees C and 5% CO2 with 95% humidity. […]
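Note: spheroids exposed to agents for 7 days.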

CNCc1ccc(-c2cc(-c3nc(-c4ccc(S(=O)(=O)C(C)C)cc4)cnc3N)on2)cc1 + COc1cc2c(cc1O)CCNC21CSC2c3c(OC(C)=O)c(C)c4c(c3C(COC1=O)N1C(O)C3Cc5cc(C)c(OC)c(O)c5C(C21)N3C)OCO4
IC50 (second compound 30 pM): 0.161 µM | IC50 (second compound 94.9 pM): 0.131 µM | IC50 (second compound 0.0003 µM): < 0.00949 µM | IC50 (second compound 0.000949 µM): < 0.00949 µM | IC50 (second compound 0.003 µM): < 0.00949 µM | viability, T/C (second compound 30 pM, first compound 0.00949 µM): 108% | viability, T/C (second compound 30 pM, first compound 0.03 µM): 113% | viability, T/C (second compound 30 pM, first compound 0.0949 µM): 85.1% | viability, T/C (second compound 30 pM, first compound 0.3 µM): 8.53% | viability, T/C (second compound 30 pM, first compound 0.949 µM): 2.32% | viability, T/C (second compound 30 pM, first compound 3 µM): 0.13% | viability, T/C (second compound 94.9 pM, first compound 0.00949 µM): 96.3% | viability, T/C (second compound 94.9 pM, first compound 0.03 µM): 103% | viability, T/C (second compound 94.9 pM, first compound 0.0949 µM): 68.1% | viability, T/C (second compound 94.9 pM, first compound 0.3 µM): 3.99% | viability, T/C (second compound 94.9 pM, first compound 0.949 µM): 1.51% | viability, T/C (second compound 94.9 pM, first compound 3 µM): 0.15% | viability, T/C (second compound 0.0003 µM, first compound 0.00949 µM): 43.7% | viability, T/C (second compound 0.0003 µM, first compound 0.03 µM): 37% | viability, T/C (second compound 0.0003 µM, first compound 0.0949 µM): 16.4% | viability, T/C (second compound 0.0003 µM, first compound 0.3 µM): 1.69% | viability, T/C (second compound 0.0003 µM, first compound 0.949 µM): 0.79% | viability, T/C (second compound 0.0003 µM, first compound 3 µM): 0.15% | viability, T/C (second compound 0.000949 µM, first compound 0.00949 µM): 0.41% | viability, T/C (second compound 0.000949 µM, first compound 0.03 µM): 0.41% | viability, T/C (second compound 0.000949 µM, first compound 0.0949 µM): 0.27% | viability, T/C (second compound 0.000949 µM, first compound 0.3 µM): 0.35% | viability, T/C (second compound 0.000949 µM, first compound 0.949 µM): 0.13% | viability, T/C (second compound 0.000949 µM, first compound 3 µM): 0.17% | viability, T/C (second compound 0.003 µM, first compound 0.00949 µM): 0.26% | viability, T/C (second compound 0.003 µM, first compound 0.03 µM): 0.28% | viability, T/C (second compound 0.003 µM, first compound 0.0949 µM): 0.27% | viability, T/C (second compound 0.003 µM, first compound 0.3 µM): 0.22% | viability, T/C (second compound 0.003 µM, first compound 0.949 µM): 0.2% | viability, T/C (second compound 0.003 µM, first compound 3 µM): 0.27%

Cc1cc(C)c(CNC(=O)c2cc(-c3ccc(CN4CCOCC4)cc3)cc3c2cnn3C2CCCC2)c(=O)[nH]1 + Cn1nnc2c(C(N)=O)ncn2c1=O
IC50 (second compound 1 µM): 2.97 µM | IC50 (second compound 3.16 µM): 3.22 µM | IC50 (second compound 10 µM): 4.59 µM | IC50 (second compound 31.6 µM): 3.07 µM | IC50 (second compound 100 µM): 1.47 µM | viability, T/C (second compound 1 µM, first compound 0.0316 µM): 90.2% | viability, T/C (second compound 1 µM, first compound 0.1 µM): 100% | viability, T/C (second compound 1 µM, first compound 0.316 µM): 90.8% | viability, T/C (second compound 1 µM, first compound 1 µM): 80.7% | viability, T/C (second compound 1 µM, first compound 3.16 µM): 48.4% | viability, T/C (second compound 1 µM, first compound 10 µM): 11.2% | viability, T/C (second compound 3.16 µM, first compound 0.0316 µM): 110% | viability, T/C (second compound 3.16 µM, first compound 0.1 µM): 107% | viability, T/C (second compound 3.16 µM, first compound 0.316 µM): 105% | viability, T/C (second compound 3.16 µM, first compound 1 µM): 91.7% | viability, T/C (second compound 3.16 µM, first compound 3.16 µM): 50.5% | viability, T/C (second compound 3.16 µM, first compound 10 µM): 14.6% | viability, T/C (second compound 10 µM, first compound 0.0316 µM): 102% | viability, T/C (second compound 10 µM, first compound 0.1 µM): 106% | viability, T/C (second compound 10 µM, first compound 0.316 µM): 114% | viability, T/C (second compound 10 µM, first compound 1 µM): 85.4% | viability, T/C (second compound 10 µM, first compound 3.16 µM): 69.6% | viability, T/C (second compound 10 µM, first compound 10 µM): 13.1% | viability, T/C (second compound 31.6 µM, first compound 0.0316 µM): 104% | viability, T/C (second compound 31.6 µM, first compound 0.1 µM): 116% | viability, T/C (second compound 31.6 µM, first compound 0.316 µM): 100% | viability, T/C (second compound 31.6 µM, first compound 1 µM): 85.4% | viability, T/C (second compound 31.6 µM, first compound 3.16 µM): 49.3% | viability, T/C (second compound 31.6 µM, first compound 10 µM): 10.9% | viability, T/C (second compound 100 µM, first compound 0.0316 µM): 94.6% | viability, T/C (second compound 100 µM, first compound 0.1 µM): 91.4% | viability, T/C (second compound 100 µM, first compound 0.316 µM): 87.4% | viability, T/C (second compound 100 µM, first compound 1 µM): 59.6% | viability, T/C (second compound 100 µM, first compound 3.16 µM): 28.6% | viability, T/C (second compound 100 µM, first compound 10 µM): 6.56%
